Where two headings read alike, the source gives them in different places.
Key:
CB1 receptor [1] = molecular target: T1, CB1 receptor (Homo sapiens, UniProt P21554); assay: cell-based; format: cell-based; details: for Experiment 1 Fold change / Experiment 2 Fold change / Experiment 3 Fold change: Table 3 data re-expressed as fold change
T1 construct: expressed in transfected cells

CB1 receptor [2] = molecular target: T1, CB1 receptor; format: cell-based; details: for Conclusions: Is CB1R agonist effect observed? / Experiment 1 Fold change / Experiment 2 Fold change / Experiment 3 Fold change: alone or + THCA 10 μM or + THC 10 μM
[3] = AKBA 5 μM, alone or + THCA 10 μM, CBD 1 μM or THC 10 μM
[4] = AKBA 10 μM, alone or + THCA 10 μM, CBD 1 μM or THC 10 μM
[5] = AKBA 25 μM, alone or + THCA 10 μM, CBD 1 μM or THC 10 μM
[6] = AKBA 50 μM, alone or + THCA 10 μM, CBD 1 μM or THC 10 μM
[7] = AKBA 100 μM, alone or + THCA 10 μM, CBD 1 μM or THC 10 μM
[8] = CBD 1 μM without AKBA, CP55940-induced activity = 100%

T1 sequence (P21554 whole entry): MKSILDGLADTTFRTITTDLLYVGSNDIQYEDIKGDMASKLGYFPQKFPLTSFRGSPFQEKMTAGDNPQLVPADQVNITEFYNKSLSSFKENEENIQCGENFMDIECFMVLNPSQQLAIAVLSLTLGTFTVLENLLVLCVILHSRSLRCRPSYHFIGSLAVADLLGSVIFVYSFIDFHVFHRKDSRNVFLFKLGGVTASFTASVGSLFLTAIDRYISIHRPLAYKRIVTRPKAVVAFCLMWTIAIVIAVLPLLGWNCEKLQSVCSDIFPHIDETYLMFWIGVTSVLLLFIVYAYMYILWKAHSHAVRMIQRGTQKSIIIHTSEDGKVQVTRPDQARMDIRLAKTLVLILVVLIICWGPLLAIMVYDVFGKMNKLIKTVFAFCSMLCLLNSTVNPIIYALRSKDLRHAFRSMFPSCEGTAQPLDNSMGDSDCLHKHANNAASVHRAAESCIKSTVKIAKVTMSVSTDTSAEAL

CC(=O)O[C@@H]1CC[C@@]2(C)[C@@H](CC[C@]3(C)[C@@H]2C(=O)C=C2[C@@H]4[C@@H](C)[C@H](C)CC[C@]4(C)CC[C@]23C)[C@@]1(C)C(=O)O [AKBA, 3-O-acetyl-11-ketobeta-boswellic acid]
EC50 (CB1 receptor [1]): 51.7 ± 13.6 µM
Positive allosteric CB1R effect on CP-55940 activity (CB1 receptor [1]): strong positive allosteric CB1R effect
Conclusions: Is CB1R antagonist effect observed? (CB1 receptor [1]; AKBA 5 μM, alone or + THCA 10 μM, CBD 1 μM or THC 10 μM, % of activity data): Negative (Only treatments that the mean of three consecutive independent experiments show a positive result (CB1R activity ≤ 50%) are considered antagonists of CB1R activity)
activity at 5 µM (CB1 receptor [1]; AKBA 5 μM, alone or + THCA 10 μM, CBD 1 μM or THC 10 μM, CP55940-induced activity = 100%, read-out: Experiment 1 % of activity): 130%
activity at 5 µM (CB1 receptor [1]; AKBA 5 μM, alone or + THCA 10 μM, CBD 1 μM or THC 10 μM, CP55940-induced activity = 100%, read-out: Experiment 2 % of activity): 123%
activity at 5 µM (CB1 receptor [1]; AKBA 5 μM, alone or + THCA 10 μM, CBD 1 μM or THC 10 μM, CP55940-induced activity = 100%, read-out: Experiment 3 % of activity): 103%
Experiment 1 Fold change (CB1 receptor [1]; [3]): 3.2 Fold change
Experiment 2 Fold change (CB1 receptor [1]; [3]): 3.1 Fold change
Experiment 3 Fold change (CB1 receptor [1]; [3]): 2.6 Fold change
Conclusions: Is CB1R antagonist effect observed? (CB1 receptor [1]; AKBA 5 μM, alone or + THCA 10 μM, CBD 1 μM or THC 10 μM, positive allosteric activity, fold change data): Negative (Only treatments that the mean of three consecutive independent experiments show a positive result (CB1R activity ≥ 4-fold change) are considered positive CB1R allosteric agonists)
Conclusions: Is CB1R antagonist effect observed? (CB1 receptor [1]; AKBA 10 μM, alone or + THCA 10 μM, CBD 1 μM or THC 10 μM, % of activity data): Negative (Only treatments that the mean of three consecutive independent experiments show a positive result (CB1R activity ≤ 50%) are considered antagonists of CB1R activity)
activity at 10 µM (CB1 receptor [1]; AKBA 10 μM, alone or + THCA 10 μM, CBD 1 μM or THC 10 μM, CP55940-induced activity = 100%, read-out: Experiment 1 % of activity): 136%
activity at 10 µM (CB1 receptor [1]; AKBA 10 μM, alone or + THCA 10 μM, CBD 1 μM or THC 10 μM, CP55940-induced activity = 100%, read-out: Experiment 2 % of activity): 114%
activity at 10 µM (CB1 receptor [1]; AKBA 10 μM, alone or + THCA 10 μM, CBD 1 μM or THC 10 μM, CP55940-induced activity = 100%, read-out: Experiment 3 % of activity): 96.4%
Experiment 1 Fold change (CB1 receptor [1]; [4]): 3.4 Fold change
Experiment 2 Fold change (CB1 receptor [1]; [4]): 2.8 Fold change
Experiment 3 Fold change (CB1 receptor [1]; [4]): 2.4 Fold change
Conclusions: Is CB1R antagonist effect observed? (CB1 receptor [1]; AKBA 10 μM, alone or + THCA 10 μM, CBD 1 μM or THC 10 μM, positive allosteric activity, fold change data): Negative (Only treatments that the mean of three consecutive independent experiments show a positive result (CB1R activity ≥ 4-fold change) are considered positive CB1R allosteric agonists)
Conclusions: Is CB1R antagonist effect observed? (CB1 receptor [1]; AKBA 25 μM, alone or + THCA 10 μM, CBD 1 μM or THC 10 μM, % of activity data): Allosterism (increase of the CB1R activity percentage (>150%) induced by CP55940)
activity at 25 µM (CB1 receptor [1]; AKBA 25 μM, alone or + THCA 10 μM, CBD 1 μM or THC 10 μM, CP55940-induced activity = 100%, read-out: Experiment 1 % of activity): 203%
activity at 25 µM (CB1 receptor [1]; AKBA 25 μM, alone or + THCA 10 μM, CBD 1 μM or THC 10 μM, CP55940-induced activity = 100%, read-out: Experiment 2 % of activity): 158%
activity at 25 µM (CB1 receptor [1]; AKBA 25 μM, alone or + THCA 10 μM, CBD 1 μM or THC 10 μM, CP55940-induced activity = 100%, read-out: Experiment 3 % of activity): 128%
Experiment 1 Fold change (CB1 receptor [1]; [5]): 5.1 Fold change
Experiment 2 Fold change (CB1 receptor [1]; [5]): 3.9 Fold change
Experiment 3 Fold change (CB1 receptor [1]; [5]): 3.2 Fold change
Conclusions: Is CB1R antagonist effect observed? (CB1 receptor [1]; AKBA 25 μM, alone or + THCA 10 μM, CBD 1 μM or THC 10 μM, positive allosteric activity, fold change data): Allosterism (An increase of the fold change ≥ 4-fold indicates CB1R positive allosteric agonistic activity)
Conclusions: Is CB1R antagonist effect observed? (CB1 receptor [1]; AKBA 50 μM, alone or + THCA 10 μM, CBD 1 μM or THC 10 μM, % of activity data): Allosterism (increase of the CB1R activity percentage (>150%) induced by CP55940)
activity at 50 µM (CB1 receptor [1]; AKBA 50 μM, alone or + THCA 10 μM, CBD 1 μM or THC 10 μM, CP55940-induced activity = 100%, read-out: Experiment 1 % of activity): 500%
activity at 50 µM (CB1 receptor [1]; AKBA 50 μM, alone or + THCA 10 μM, CBD 1 μM or THC 10 μM, CP55940-induced activity = 100%, read-out: Experiment 2 % of activity): 537%
activity at 50 µM (CB1 receptor [1]; AKBA 50 μM, alone or + THCA 10 μM, CBD 1 μM or THC 10 μM, CP55940-induced activity = 100%, read-out: Experiment 3 % of activity): 474%
Experiment 1 Fold change (CB1 receptor [1]; [6]): 12.5 Fold change
Experiment 2 Fold change (CB1 receptor [1]; [6]): 13.4 Fold change
Experiment 3 Fold change (CB1 receptor [1]; [6]): 11.9 Fold change
Conclusions: Is CB1R antagonist effect observed? (CB1 receptor [1]; AKBA 50 μM, alone or + THCA 10 μM, CBD 1 μM or THC 10 μM, positive allosteric activity, fold change data): Allosterism (An increase of the fold change ≥ 4-fold indicates CB1R positive allosteric agonistic activity)
Conclusions: Is CB1R antagonist effect observed? (CB1 receptor [1]; AKBA 100 μM, alone or + THCA 10 μM, CBD 1 μM or THC 10 μM, % of activity data): Allosterism (increase of the CB1R activity percentage (>150%) induced by CP55940)
activity at 100 µM (CB1 receptor [1]; AKBA 100 μM, alone or + THCA 10 μM, CBD 1 μM or THC 10 μM, CP55940-induced activity = 100%, read-out: Experiment 2 % of activity): 674%
activity at 100 µM (CB1 receptor [1]; AKBA 100 μM, alone or + THCA 10 μM, CBD 1 μM or THC 10 μM, CP55940-induced activity = 100%, read-out: Experiment 3 % of activity): 485%
Experiment 1 Fold change (CB1 receptor [1]; [7]): 25.6 Fold change
Experiment 2 Fold change (CB1 receptor [1]; [7]): 16.8 Fold change
Experiment 3 Fold change (CB1 receptor [1]; [7]): 12.1 Fold change
Conclusions: Is CB1R antagonist effect observed? (CB1 receptor [1]; AKBA 100 μM, alone or + THCA 10 μM, CBD 1 μM or THC 10 μM, positive allosteric activity, fold change data): Allosterism (An increase of the fold change ≥ 4-fold indicates CB1R positive allosteric agonistic activity)
CB1R antagonistic effect (CB1 receptor [1]; AKBA 5-100 μM, CP55940-stimulated cells): did not show an antagonistic effect
Conclusions: Is CB1R agonist effect observed? (CB1 receptor [2]; AKBA 5 μM): Negative (Only treatments that the mean of three consecutive independent experiments shows a positive result: CB1R activity ≥ 2.5-fold increase or ≥ 4-fold increase are considered CB1R agonists or CB1R positive allosteric modulators)
Experiment 1 Fold change (CB1 receptor [2]; AKBA 5 μM): 0.8 Fold change
Experiment 2 Fold change (CB1 receptor [2]; AKBA 5 μM): 0.8 Fold change
Experiment 3 Fold change (CB1 receptor [2]; AKBA 5 μM): 1.1 Fold change
Conclusions: Is CB1R agonist effect observed? (CB1 receptor [2]; AKBA 10 μM): Negative (Only treatments that the mean of three consecutive independent experiments shows a positive result: CB1R activity ≥ 2.5-fold increase or ≥ 4-fold increase are considered CB1R agonists or CB1R positive allosteric modulators)
Experiment 1 Fold change (CB1 receptor [2]; AKBA 10 μM): 1.0 Fold change
Experiment 2 Fold change (CB1 receptor [2]; AKBA 10 μM): 1.3 Fold change
Experiment 3 Fold change (CB1 receptor [2]; AKBA 10 μM): 0.9 Fold change
Experiment 1 Fold change (CB1 receptor [2]; AKBA 25 μM): 1.0 Fold change
Experiment 2 Fold change (CB1 receptor [2]; AKBA 25 μM): 1.1 Fold change
Experiment 3 Fold change (CB1 receptor [2]; AKBA 25 μM): 0.8 Fold change
Conclusions: Is CB1R agonist effect observed? (CB1 receptor [2]; AKBA 25 μM, cell 'Positive' wraps to 'Positive synergy'): Negative (Only treatments that the mean of three consecutive independent experiments shows a positive result: CB1R activity ≥ 2.5-fold increase or ≥ 4-fold increase are considered CB1R agonists or CB1R positive allosteric modulators)
Experiment 1 Fold change (CB1 receptor [2]; AKBA 50 μM): 1.3 Fold change
Experiment 2 Fold change (CB1 receptor [2]; AKBA 50 μM): 1.3 Fold change
Experiment 3 Fold change (CB1 receptor [2]; AKBA 50 μM): 0.7 Fold change
Conclusions: Is CB1R agonist effect observed? (CB1 receptor [2]; AKBA 50 μM, cell 'Positive' wraps to 'Positive synergy'): Negative (Only treatments that the mean of three consecutive independent experiments shows a positive result: CB1R activity ≥ 2.5-fold increase or ≥ 4-fold increase are considered CB1R agonists or CB1R positive allosteric modulators)
Experiment 1 Fold change (CB1 receptor [2]; AKBA 100 μM): 2.5 Fold change
Experiment 2 Fold change (CB1 receptor [2]; AKBA 100 μM): 1.1 Fold change
Experiment 3 Fold change (CB1 receptor [2]; AKBA 100 μM): 0.7 Fold change
Conclusions: Is CB1R agonist effect observed? (CB1 receptor [2]; AKBA 100 μM, cell 'Positive' wraps to 'Positive synergy'): Negative (Only treatments that the mean of three consecutive independent experiments shows a positive result: CB1R activity ≥ 2.5-fold increase or ≥ 4-fold increase are considered CB1R agonists or CB1R positive allosteric modulators)
CB1R agonistic activity (CB1 receptor [2]; AKBA 5-100 μM alone or + 10 μM THCA, any tested concentration, THC alone): did not show CB1R agonistic activity

C=C(C)[C@@H]1CCC(C)=C[C@H]1c1c(O)cc(CCCCC)cc1O [CBD, cannabidiol, reference compound]
Effect of cannabinoid on AKBA CB1R positive allosteric activity (CB1 receptor [1]; AKBA 50 and 100 μM, THCA 10 μM or CBD 1 μM): almost abolished
Conclusions: Is CB1R antagonist effect observed? (CB1 receptor [1]; CBD 1 μM without AKBA, % of activity data): + (A reduction of the percentage below 50% indicates CB1R antagonistic activity)
Experiment 1 % of activity (CB1 receptor [1]; [8]): 66.2%
Experiment 2 % of activity (CB1 receptor [1]; [8]): 70.7%
Experiment 3 % of activity (CB1 receptor [1]; [8]): 69.5%
Experiment 1 Fold change (CB1 receptor [1]; CBD 1 μM without AKBA): 1.7 Fold change
Experiment 2 Fold change (CB1 receptor [1]; CBD 1 μM without AKBA): 1.8 Fold change
Experiment 3 Fold change (CB1 receptor [1]; CBD 1 μM without AKBA): 1.7 Fold change
Conclusions: Is CB1R antagonist effect observed? (CB1 receptor [1]; CBD 1 μM without AKBA, positive allosteric activity, fold change data): Negative (Only treatments that the mean of three consecutive independent experiments show a positive result (CB1R activity ≥ 4-fold change) are considered positive CB1R allosteric agonists)

Reference: US20210205236A1, “THERAPEUTIC COMBINATIONS OF BOSWELLIA EXTRACT AND CANNABINOIDS” (priority 2018, published 2021)
